From patent US10759816B2, “Heterocyclic compounds as RSV inhibitors” (Enanta Pharmaceuticals, Inc., priority 2016, dated 2020)
Like-named read-outs stand apart in the source and are kept apart here.

Test system: genotype A, "Long" strain RSV
Experiment: RSV-A in vitro cytoprotection assay in HEp-2 cells (ATPlite readout of cell viability)
Format: cell-based, Human respiratory syncytial virus
Details: genotype A “Long” strain RSV, cytoprotection, read-out: Human RSV-A (“Long” strain) EC50
Excerpt: RSV is a single stranded negative sense RNA virus that causes respiratory tract infections which can be dangerous to infants, the elderly, and immunosuppressed individuals. Currently there is no vaccine, and therapeutic options are both costly and of limited effectiveness. These approved treatments are Ribavirin, and Palivizumab/Synagis (a monoclonal antibody). RSV has two genotypes, A and B, which differ primarily in the structure of the virus' surface “G” attachment protein. Our current primary screen focuses on RSV-A and uses an in vitro cytoprotection assay where compounds are added in 2-fold dilutions to cells which are then subjected to fully replicative viral particles. Cell viability is measured several days later along with separate measurements of compound cytotoxicity. This report focuses on the results of our most recent screening of compounds.
HEp-2 cells, (originally derived from tumors grown in irradiated-cortisonised weanling rats that had been injected with epidermoid carcinoma tissue from a person's larynx, but later found to be indistinguishable from HeLa cells by PCR DNA analysis), were used for the culturing of genotype A, “Long” strain RSV. Flasks were inoculated with RSV and viral stocks were collected once cytopathic effect (CPE) was greater than 90%. Viral stocks in 25% sucrose media were snap frozen using liquid nitrogen to increase viral stability. Viral stock titers were quantified by tissue culture infectious dose 50% (TCID50) using 8,000 cells per well and 3-fold viral dilutions across a 96-well plate, cultured for 4 days.
Following extensive parameter testing, the final assay is run as follows: HEp-2 cells are seeded into the inner 60 wells of a 96-well plate at 8,000 cells per well in a volume of 50 μL using Growth Media (DMEM without phenol red, 1% L-Glut, 1% Penn/Strep, 1% nonessential amino acids, 10% FBS). 2-Fold serial dilutions of control and test compounds are added to the wells in duplicate in a total volume of 25 μL. Viral stock is then added to the wells in a volume of 25 μL, bringing the total volume of each well to 100 μL. Each 96-well plate has a control column of 6 wells with cells and virus but no compound (negative control, max CPE), a column with cells but no compound or virus (positive control, minimum CPE), and a column with no cells or virus or compound (background plate/reagent control). The control wells with cells but no virus are given an additional 25 uL of growth media containing an equal quantity of sucrose as those wells receiving the viral stock in order to keep consistent in media and volume conditions. The outer wells of the plate are filled with 125 μL of growth media to act as a thermal and evaporative moat around the test wells. Following a 4-day incubation period, the plates are read using ATPlite (50 uL added per well), which quantifies the amount of ATP (a measure of cell health) present in each well. Assay plates are read using the Envision luminometer. In parallel, cytotoxicity is examined on an additional 96-well plate treated in an identical manner, but substituting the 25 μL of viral stock for 25 μL of growth media. […] EC50 ranges are as follows: A <0.4 μM; B 0.4-0.8 μM; C >0.8 μM.

[1] = human respiratory syncytial virus, HEp-2, HEp-2 cells

SMILES	EC50 [1] [µM]	EC50 (HEp-2 cells) [µM]
O=C(NC1CC1)c1nc2c(s1)CCN(C(=O)c1cccc(N3CCCOCC3)n1)c1ccccc1-2 [Example 108]	0.4 to 0.8	
COc1ccc(-c2cccc(C(=O)N3CCc4sc(C(=O)NC5CC5)nc4-c4ccccc43)n2)cn1 [Example 109]	> 0.8	
COc1ccc(-c2cccc(C(=O)N3CCc4cnc(NC(=O)C5CC5)nc4-c4ccccc43)n2)cn1 [Example 110]	> 0.8	
O=C(Nc1ncc2c(n1)-c1ccccc1N(C(=O)c1cccc(N3CCCOCC3)n1)CC2)C1CC1 [Example 111]	> 0.8	
O=C(NC1CC1)c1cc2c(s1)-c1ccccc1N(C(=O)c1cccc(-n3ccc4ccccc43)n1)CC2 [Example 112]	> 0.8	
COc1ccc2c(ccn2-c2cccc(C(=O)N3CCc4cc(C(=O)NC5CC5)sc4-c4ccccc43)n2)c1 [Example 113]	> 0.8	
COc1cccc2c1ccn2-c1cccc(C(=O)N2CCc3cc(C(=O)NC4CC4)sc3-c3ccccc32)n1 [Example 114]	> 0.8	
COCCN(c1ccccc1)c1cccc(C(=O)N2CCc3cc(C(=O)Nc4c(C)cccc4F)sc3-c3ccccc32)n1 [Example 115]	< 0.4	
Cc1cccc(F)c1NC(=O)c1cc2c(s1)-c1ccccc1N(C(=O)c1cccc(N(C)CC3Cc4ccccc4O3)n1)CC2 (centres unmarked) [Example 117]	< 0.4	
COCCN(CC(C)C)c1cccc(C(=O)N2CCc3cc(C(=O)Nc4c(C)cccc4F)sc3-c3ccccc32)n1 [Example 118]	< 0.4	
COc1cccc2c1ccn2-c1cccc(C(=O)N2CCc3cc(C(=O)Nc4c(C)cccc4F)sc3-c3ccccc32)n1 [Example 119]	0.4 to 0.8	
COc1ccc2c(ccn2-c2cccc(C(=O)N3CCc4cc(C(=O)Nc5c(C)cccc5F)sc4-c4ccccc43)n2)c1 [Example 120]	< 0.4	
O=C(NC1CC1)c1cc2c(s1)-c1ccccc1N(C(=O)c1cccc(-n3cnc4ncccc43)n1)CC2 [Example 121]	> 0.8	
Cc1cccc(F)c1NC(=O)c1cc2c(s1)-c1ccccc1N(C(=O)c1cccc(-n3cnc4ncccc43)n1)CC2 [Example 122]	> 0.8	
Cc1cccc(F)c1NC(=O)c1cc2c(s1)-c1ccccc1N(C(=O)c1cccc(-n3nnc4ncccc43)n1)CC2 [Example 123]	> 0.8	
O=C(NC1CC1)c1cc2c(s1)-c1ccccc1N(C(=O)c1cccc(-c3nncn3C3CCOCC3)n1)CC2 [Example 124]	> 0.8	
COC(C)(C)Cn1cnnc1-c1cccc(C(=O)N2CCc3cc(C(=O)NC4CC4)sc3-c3ccccc32)n1 [Example 125]	> 0.8	
O=C(NC1CC1)c1cc2c(s1)-c1ccccc1N(C(=O)c1cccc(-c3nncn3C3CC3)n1)CC2 [Example 126]	> 0.8	
O=C(NC1CC1)c1cc2c(s1)-c1ccccc1N(C(=O)c1cccc(-c3nncn3CC3CCOCC3)n1)CC2 [Example 127]	> 0.8	
O=C(NC1CC1)c1cc2c(s1)-c1ccccc1N(C(=O)c1cccc(-c3nncn3C3COC3)n1)CC2 [Example 128]	> 0.8	
Cc1cccc(F)c1NC(=O)c1cc2c(s1)-c1ccccc1N(C(=O)c1ccc(NC(=O)NCCN3CCOCC3)cc1)CC2 [Example 129]	> 0.8	
Cc1cccc(F)c1NC(=O)c1cc2c(s1)-c1ccccc1N(C(=O)c1ccc(NC(=O)N3CC4(CCOCC4)C3)cc1)CC2 [Example 130]	> 0.8	
Cc1cccc(F)c1NC(=O)c1cc2c(s1)-c1ccccc1N(C(=O)c1ccc(NC(=O)N3CCCOCC3)cc1)CC2 [Example 131]	> 0.8	
Cc1cccc(F)c1NC(=O)c1cc2c(s1)-c1ccccc1N(C(=O)c1ccc(NS(=O)(=O)c3cccnc3N3CC4(CCOCC4)C3)cc1)CC2 [Example 132]	> 0.8	
Cc1cnc(N2CC3(CCOCC3)C2)c(NS(=O)(=O)c2ccc(C(=O)N3CCc4cc(C(=O)Nc5c(C)cccc5F)sc4-c4ccccc43)cc2)c1 [Example 133]	> 0.8	
Cc1cccc(F)c1NC(=O)c1cc2c(s1)-c1ccccc1N(C(=O)c1ccc(Nc3cccnc3N3CC4(CCOCC4)C3)cc1)CC2 [Example 134]	> 0.8	
Cc1cccc(F)c1NC(=O)c1cc2c(o1)-c1ccccc1N(C(=O)c1ccc(NC(=O)c3cccnc3N3CC4(CCOCC4)C3)cc1)CC2 [Example 135]	< 0.4	

SMILES	EC50 [1] [µM]	EC50 (HEp-2 cells) [µM]
Cc1cnc(N2CCOCC2)c(NC(=O)c2ccc(C(=O)N3CCc4cc(C(=O)Nc5c(C)cccc5F)sc4-c4ccccc43)cc2)c1 [Example 137]	> 0.8	
Cc1cnc(N2CC3(CCCOC3)C2)c(NC(=O)c2ccc(C(=O)N3CCc4cc(C(=O)Nc5c(C)cccc5F)sc4-c4ccccc43)cc2)c1 [Example 138]	> 0.8	
Cc1cnc(N2CCC3(COC3)C2)c(NC(=O)c2ccc(C(=O)N3CCc4cc(C(=O)Nc5c(C)cccc5F)sc4-c4ccccc43)cc2)c1 [Example 139]	> 0.8	
Cc1cnc(N2CC3(CCOC3)C2)c(NC(=O)c2ccc(C(=O)N3CCc4cc(C(=O)Nc5c(C)cccc5F)sc4-c4ccccc43)cc2)c1 [Example 140]	> 0.8	
Cc1cnc(N2CC3(COC3)C2)c(NC(=O)c2ccc(C(=O)N3CCc4cc(C(=O)Nc5c(C)cccc5F)sc4-c4ccccc43)cc2)c1 [Example 141]	> 0.8	
Cc1cnc(N2CC3(CCOCC3)C2)c(NC(=O)c2ccc(C(=O)N3CCc4cc(C(=O)Nc5c(C)cccc5F)sc4-c4ccccc43)cc2)c1 [Example 142]	< 0.4	
Cc1cccc(F)c1NC(=O)c1cc2c(s1)-c1ccccc1N(C(=O)c1cccc(-n3cc(C#N)cn3)n1)CC2 [Example 143]	> 0.8	
Cc1cccc(F)c1NC(=O)c1cc2c(s1)-c1ccccc1N(C(=O)c1cccc(-n3cc(S(C)(=O)=O)cn3)n1)CC2 [Example 144]	> 0.8	
Cc1cccc(F)c1NC(=O)c1cc2c(s1)-c1ccccc1N(C(=O)c1cccc(-n3cnnc3C3CC3)n1)CC2 [Example 145]	> 0.8	
Cc1cccc(F)c1NC(=O)c1cc2c(s1)-c1ccccc1N(C(=O)c1cccc(-n3ccnc3C3CC3)n1)CC2 [Example 146]	< 0.4	
Cc1cccc(F)c1NC(=O)c1cc2c(s1)-c1ccccc1N(C(=O)c1cccc(-n3ccnc3C3CCC3)n1)CC2 [Example 147]	< 0.4	
Cc1cccc(F)c1NC(=O)c1cc2c(s1)-c1ccccc1N(C(=O)c1cccc(-n3cncc3C3CC3)n1)CC2 [Example 148]	> 0.8	
Cc1cccc(F)c1NC(=O)c1cc2c(s1)-c1ccccc1N(C(=O)c1cccc(-n3cnc(C4CC4)c3)n1)CC2 [Example 149]	< 0.4	
O=C(NC1CC1)c1cc2c(s1)-c1ccccc1N(C(=O)c1cccc(-c3cnn(C4CCOCC4)c3)n1)CC2 [Example 150]		> 0.8
Cn1cc(-c2cccc(C(=O)N3CCc4cc(C(=O)NC5CC5)sc4-c4ccccc43)n2)ccc1=O [Example 151]	> 0.8	
O=C(NC1CC1)c1cc2c(s1)-c1ccccc1N(C(=O)c1cccc(-c3ccnc4ccccc34)n1)CC2 [Example 152]	> 0.8	
O=C(NC1CC1)c1cc2c(s1)-c1ccccc1N(C(=O)c1cccc(-c3cncc4ccccc34)n1)CC2 [Example 153]	> 0.8	
O=C(NC1CC1)c1cc2c(s1)-c1ccccc1N(C(=O)c1cccc(-c3cccnc3)n1)CC2 [Example 154]	> 0.8	
Cc1cncc(-c2cccc(C(=O)N3CCc4cc(C(=O)NC5CC5)sc4-c4ccccc43)n2)c1 [Example 155]	> 0.8	
Cc1ccncc1-c1cccc(C(=O)N2CCc3cc(C(=O)NC4CC4)sc3-c3ccccc32)n1 [Example 156]	> 0.8	
O=C(NC1CC1)c1cc2c(s1)-c1ccccc1N(C(=O)c1cccc(-c3cncc(N4CCOCC4)c3)n1)CC2 [Example 157]	0.4 to 0.8	
O=C(NC1CC1)c1cc2c(s1)-c1ccccc1N(C(=O)c1cccc(-c3cnn(C4COC4)c3)n1)CC2 [Example 158]	> 0.8	
O=C(NC1CC1)c1cc2c(s1)-c1ccccc1N(C(=O)c1cccc(-c3cnn(C4CCOC4)c3)n1)CC2 (centres unmarked) [Example 159]	> 0.8	
COCCn1cc(-c2cccc(C(=O)N3CCc4cc(C(=O)NC5CC5)sc4-c4ccccc43)n2)cn1 [Example 160]	> 0.8	
O=C(NC1CC1)c1cc2c(s1)-c1ccccc1N(C(=O)c1cccc(-c3cnc(N4CCOCC4)s3)n1)CC2 [Example 161]	0.4 to 0.8	
Cn1ccc(-c2cccc(C(=O)N3CCc4cc(C(=O)NC5CC5)sc4-c4ccccc43)n2)cc1=O [Example 162]	> 0.8	
